The values that follow are results of earlier work, collected in patent US7799530B2, “Genetic polymorphisms associated with cardiovascular disorders and drug response, methods of detection and uses thereof” (Celera Corporation, priority 2005, dated 2010).

For data set [1], the system named is acute coronary events and LDL-C in subjects with average cholesterol levels. The note with it: AFCAPS/TexCAPS; cited from earlier work.
The test system of a further data set is rhabdomyolysis. The note with it: in vivo; cited from earlier work.

Take `CC[C@H](C)C(=O)O[C@H]1C[C@@H](C)C=C2C=C[C@H](C)[C@H](CC[C@@H]3C[C@@H](O)CC(=O)O3)[C@H]21` [lovastatin]: in data set [1], the “LDL-C reduction (average)” value was 25% and the decrease in events is on record as 37%.
Take `COCc1c(C(C)C)nc(C(C)C)c(/C=C/[C@@H](O)C[C@@H](O)CC(=O)O)c1-c1ccc(F)cc1` [cerevastatin]: in the data set with rhabdomyolysis, the rhabdomyolysis-related deaths entry is on record as “relatively high level of rhabdomyolysis-related deaths”.
